Data published in patent US5863936A, “Telomerase inhibitors” (Geron Corporation, priority 1995, dated 1999).
Where “and” joins values, the source holds several entries; their conditions need not be identical. Equal entries are not always repeated. Where two headings read alike, the source gives them in different places.

Biological target: T1, telomerase (Homo sapiens, UniProt O14746)
T1 construct: cells, tissues, or preferably a cellular extract or other preparation containing telomerase; endogenous in cells
Experiment: Telomerase inhibition (IC50) with cellular extract or other preparation containing telomerase
Assay type: biochemical
From the text: One method used to identify compounds of the invention that inhibit telomerase activity involves placing cells, tissues, or preferably a cellular extract or other preparation containing telomerase in contact with several known concentrations of a test compound in a buffer compatible with telomerase activity. […] Other methods for determining the inhibitory concentration of a compound of the invention against telomerase can be employed as will be apparent to those of skill in the art based on the disclosure herein.
With the above-described methods, IC50 values for several of the compounds of the present invention were determined. The values reported in Table 1 below are only approximate values; more exact IC50 values can be obtained by repetitive testing.

[1] = approximate values, read-out: IC50

T1 sequence (O14746 whole entry): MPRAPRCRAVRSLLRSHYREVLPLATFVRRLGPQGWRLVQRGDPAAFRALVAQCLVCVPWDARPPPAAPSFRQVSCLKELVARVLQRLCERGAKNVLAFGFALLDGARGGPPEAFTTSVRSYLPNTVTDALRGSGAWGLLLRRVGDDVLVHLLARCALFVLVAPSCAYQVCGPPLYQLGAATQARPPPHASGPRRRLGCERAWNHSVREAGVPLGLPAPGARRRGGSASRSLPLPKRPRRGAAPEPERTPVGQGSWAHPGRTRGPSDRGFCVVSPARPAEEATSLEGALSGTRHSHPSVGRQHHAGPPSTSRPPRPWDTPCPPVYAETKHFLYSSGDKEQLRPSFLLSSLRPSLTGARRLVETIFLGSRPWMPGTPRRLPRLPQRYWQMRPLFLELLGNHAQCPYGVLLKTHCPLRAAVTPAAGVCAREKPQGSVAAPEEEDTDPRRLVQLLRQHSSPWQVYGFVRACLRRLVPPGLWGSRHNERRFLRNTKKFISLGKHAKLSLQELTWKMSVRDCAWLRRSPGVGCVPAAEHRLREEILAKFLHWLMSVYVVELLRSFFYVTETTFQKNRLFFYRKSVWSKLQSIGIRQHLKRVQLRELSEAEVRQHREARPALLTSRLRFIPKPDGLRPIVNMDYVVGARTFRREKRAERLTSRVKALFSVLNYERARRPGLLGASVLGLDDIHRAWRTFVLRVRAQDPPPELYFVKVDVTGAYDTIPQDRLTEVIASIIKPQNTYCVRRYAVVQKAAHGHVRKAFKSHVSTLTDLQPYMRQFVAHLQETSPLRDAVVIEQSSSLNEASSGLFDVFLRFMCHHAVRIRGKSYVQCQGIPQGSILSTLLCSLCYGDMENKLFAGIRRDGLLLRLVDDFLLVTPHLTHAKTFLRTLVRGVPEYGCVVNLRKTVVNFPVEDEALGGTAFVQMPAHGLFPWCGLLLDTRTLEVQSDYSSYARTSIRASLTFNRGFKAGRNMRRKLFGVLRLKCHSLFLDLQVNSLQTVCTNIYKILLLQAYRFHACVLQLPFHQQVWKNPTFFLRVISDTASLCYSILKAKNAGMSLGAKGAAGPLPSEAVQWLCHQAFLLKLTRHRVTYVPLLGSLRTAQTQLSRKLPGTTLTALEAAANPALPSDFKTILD
T1 sequence (O60832 whole entry partner): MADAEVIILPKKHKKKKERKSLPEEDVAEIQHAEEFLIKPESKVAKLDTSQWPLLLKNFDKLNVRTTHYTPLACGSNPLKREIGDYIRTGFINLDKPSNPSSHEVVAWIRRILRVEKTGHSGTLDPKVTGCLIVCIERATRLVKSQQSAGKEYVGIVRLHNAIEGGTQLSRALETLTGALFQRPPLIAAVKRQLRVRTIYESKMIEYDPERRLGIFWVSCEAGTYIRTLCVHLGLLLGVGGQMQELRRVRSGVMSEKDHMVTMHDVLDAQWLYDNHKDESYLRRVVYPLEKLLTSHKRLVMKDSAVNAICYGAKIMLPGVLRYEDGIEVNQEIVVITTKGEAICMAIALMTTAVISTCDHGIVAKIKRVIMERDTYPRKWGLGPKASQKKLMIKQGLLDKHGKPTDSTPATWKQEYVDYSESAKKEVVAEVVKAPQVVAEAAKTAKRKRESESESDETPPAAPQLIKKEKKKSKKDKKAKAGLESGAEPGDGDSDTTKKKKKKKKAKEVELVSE
T1 sequence (Q9NPE3 whole entry partner): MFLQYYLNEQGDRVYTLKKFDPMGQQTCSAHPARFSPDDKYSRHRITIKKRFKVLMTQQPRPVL
T1 sequence (Q9NX24 whole entry partner): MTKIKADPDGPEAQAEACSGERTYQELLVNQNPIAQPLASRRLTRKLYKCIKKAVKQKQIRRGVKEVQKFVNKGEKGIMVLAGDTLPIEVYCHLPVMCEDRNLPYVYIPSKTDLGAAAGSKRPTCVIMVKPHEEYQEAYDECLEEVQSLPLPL
T1 sequence (Q9NY12 whole entry partner): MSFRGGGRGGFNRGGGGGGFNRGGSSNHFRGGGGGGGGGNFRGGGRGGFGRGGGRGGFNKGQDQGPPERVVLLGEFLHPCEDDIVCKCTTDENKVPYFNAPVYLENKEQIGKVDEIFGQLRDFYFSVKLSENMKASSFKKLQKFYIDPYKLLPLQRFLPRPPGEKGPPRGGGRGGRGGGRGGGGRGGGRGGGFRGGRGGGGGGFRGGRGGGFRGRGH

Cc1ccc(Sc2ccccc2NC(=S)NNC(=O)c2cc3cc(NC(=S)Nc4ccccc4Sc4ccc(C)cc4)ccc3s2)cc1 [Compound III]
anti-telomerase activity (in words): useful telomerase-inhibiting properties
IC50 [1]: 12 µM

Cc1ccc(NC(=S)Nc2ccc3sc(C(=O)NNC(=S)Nc4cc(Cl)ccc4Cl)cc3c2)cc1 [Compound II]
anti-telomerase activity (in words): good anti-telomerase activity
IC50 [1]: 6 µM

Cc1cccc(NC(=S)Nc2ccc3sc(C(=O)NNC(=S)Nc4cc(C(F)(F)F)cc(C(F)(F)F)c4)cc3c2)c1 [Compound IV]
anti-telomerase activity (in words): useful telomerase-inhibiting properties
IC50 [1]: 23.4 µM

O=C(NNC(=S)Nc1cc(Cl)ccc1Cl)c1cc2ccccc2s1 [Compound VII]
IC50 [1]: 10 µM

CSc1ccc(NC(=S)NNC(=O)c2cc3cc(NC(=S)Nc4cccc(C)c4)ccc3s2)cc1 [Compound VI]
anti-telomerase activity (in words): useful telomerase-inhibiting properties
IC50 [1]: 6.4 µM

Cc1ccc(Sc2ccccc2NC(=S)NNC(=O)c2cc3cc(NC(=S)Nc4cccc(C)c4)ccc3s2)cc1 [Compound V]
anti-telomerase activity (in words): useful telomerase-inhibiting properties
IC50 [1]: 9.7 µM

O=C(NNC(=S)Nc1cc(Br)ccc1Br)c1cc2c(Cl)cccc2s1 [Compound XIII]
IC50 [1]: 9 µM

O=C(NNC(=S)Nc1cc(Cl)c(Cl)c(Cl)c1Cl)c1cc2c(Cl)cccc2s1 [Compound XII]
IC50 [1]: 7 µM

O=C(NNC(=S)Nc1ccc(Cl)c(Cl)c1Cl)c1cc2c(Cl)cccc2s1 [Compound XIV]
IC50 [1]: 9 µM

O=C(NNC(=S)Nc1cc(Cl)c(Cl)c(Cl)c1Cl)c1sc2ccccc2c1Cl [Compound XIX]
anti-telomerase activity (in words): useful anti-telomerase properties
IC50 [1]: 8 µM

O=C(NNC(=S)Nc1cc(Cl)c(Cl)cc1Cl)c1cc2c(Cl)cccc2s1 [Compound XI]
IC50 [1]: 10 µM

O=C(NNC(=S)Nc1ccc(Cl)cc1)c1sc2ccc(Cl)c(Cl)c2c1Cl [Compound XLI]
IC50 [1]: 8 µM

O=C(NNC(=S)Nc1c(Cl)cc(Cl)cc1Cl)c1sc2ccc(Cl)c(Cl)c2c1Cl [Compound XL]
IC50 [1]: 14 µM

COc1ccc2c(Cl)c(C(=O)NNC(=S)Nc3cc(Cl)c(Cl)c(Cl)c3Cl)sc2c1Cl [Compound XVIII]
IC50 [1]: 15 µM

COc1ccc2c(Cl)c(C(=O)NNC(=S)Nc3cc(Cl)c(Cl)cc3Cl)sc2c1Cl [Compound XVII]
IC50 [1]: 9 µM

O=C(NNC(=S)Nc1ccc(Sc2ccc([N+](=O)[O-])cc2)cc1)c1cc2c(F)cccc2s1 [Compound XVI]
IC50 [1]: 6 µM

Cc1ccc(Sc2ccccc2NC(=S)NNC(=O)c2cc3c(Cl)cccc3s2)cc1 [Compound XV]
IC50 [1]: 9 µM

Cc1ccc2c(Cl)c(C(=O)NNC(=S)Nc3cccc(Cl)c3Cl)sc2c1 [Compound XXIII]
IC50 [1]: 10 µM

COc1ccc2c(Cl)c(C(=O)NNC(=S)Nc3ccc(Cl)c(Cl)c3Cl)sc2c1 [Compound XXII]
anti-telomerase activity (in words): useful telomerase-inhibiting properties
IC50 [1]: 8 µM

O=C(NNC(=S)Nc1cc(Cl)c(Cl)cc1Cl)c1sc2cc(-c3ccccc3)ccc2c1Cl [Compound XXIV]
IC50 [1]: 8 µM

O=C(NNC(=S)Nc1c(Cl)cc(Cl)cc1Cl)c1sc2cc(-c3ccccc3)ccc2c1Cl [Compound XXIX]
IC50 [1]: 7 µM

COc1ccc2c(Cl)c(C(=O)NNC(=S)Nc3cc(Cl)c(Cl)c(Cl)c3Cl)sc2c1 [Compound XXI]
anti-telomerase activity (in words): useful telomerase-inhibiting properties
IC50 [1]: 5 µM

O=C(NNC(=S)Nc1cc(Br)ccc1Br)c1sc2cc(-c3ccccc3)ccc2c1Cl [Compound XXVIII]
IC50 [1]: 9 µM

O=C(NNC(=S)Nc1cc(Cl)ccc1Cl)c1sc2cc(-c3ccccc3)ccc2c1Cl [Compound XXVII]
IC50 [1]: 6 µM

O=C(NNC(=S)Nc1cccc(Cl)c1Cl)c1sc2cc(-c3ccccc3)ccc2c1Cl [Compound XXVI]
IC50 [1]: 6 µM

O=C(NNC(=S)Nc1cc(Cl)c(Cl)c(Cl)c1Cl)c1sc2cc(-c3ccccc3)ccc2c1Cl [Compound XXV]
IC50 [1]: 10 µM

O=C(NNC(=S)Nc1cc(Cl)ccc1Cl)c1sc2ccc(Cl)c(Cl)c2c1Cl [Compound XXXIII]
IC50 [1]: 7 µM

O=C(NNC(=S)Nc1ccc(Cl)cc1Cl)c1sc2ccc(Cl)c(Cl)c2c1Cl [Compound XXXII]
IC50 [1]: 7 µM

O=C(NNC(=S)Nc1ccc(Cl)c(Cl)c1Cl)c1sc2ccc(Cl)c(Cl)c2c1Cl [Compound XXXIV]
IC50 [1]: 6 µM

O=C(NNC(=S)Nc1cc(Cl)c(Cl)cc1Cl)c1sc2ccc(Cl)c(Cl)c2c1Cl [Compound XXXIX]
IC50 [1]: 5 µM and ≤ 5 µM

O=C(NNC(=S)Nc1cccc(Cl)c1Cl)c1sc2ccc(Cl)c(Cl)c2c1Cl [Compound XXXI]
IC50 [1]: 5 µM and ≤ 5 µM

O=C(NNC(=S)Nc1ccc2ccccc2c1)c1sc2ccc(Cl)c(Cl)c2c1Cl [Compound XXXVIII]
IC50 [1]: 5 µM and ≤ 5 µM

Cc1ccc(Sc2ccccc2NC(=S)NNC(=O)c2sc3ccc(Cl)c(Cl)c3c2Cl)cc1 [Compound XXXVII]
IC50 [1]: 7 µM

O=C(NNC(=S)Nc1cc(C(F)(F)F)cc(C(F)(F)F)c1)c1sc2ccc(Cl)c(Cl)c2c1Cl [Compound XXXVI]
IC50 [1]: 8 µM

O=C(NNC(=S)Nc1cc(Br)ccc1Br)c1sc2ccc(Cl)c(Cl)c2c1Cl [Compound XXXV]
IC50 [1]: 6 µM

O=C(NNC(=S)Nc1cc(Cl)c(Cl)c(Cl)c1Cl)c1sc2ccc(Cl)c(Cl)c2c1Cl [Compound XXX]
IC50 [1]: 5 µM and ≤ 5 µM

COc1ccc2c(Cl)c(C(=O)NNC(=S)Nc3cc(Cl)c(Cl)cc3Cl)sc2c1 [Compound XX]
anti-telomerase activity (in words): useful telomerase-inhibiting properties
IC50 [1]: 9 µM

Cc1ccc(Sc2ccccc2NC(=S)NNC(=O)c2cc3cccc(F)c3s2)cc1 [Compound X]
IC50 [1]: 6 µM

O=C(NNC(=S)Nc1cc(Cl)c(Cl)c(Cl)c1Cl)c1cc2cccc(F)c2s1 [IX]
IC50 [1]: 5 µM and ≤ 5 µM

O=C(NNC(=S)Nc1cc(Cl)c(Cl)cc1Cl)c1cc2cccc(F)c2s1 [VIII]
IC50 (IC50, approximate values): 7 µM
